In patent US12042500B2, “Mucoadhesive drug delivery system for ocular administration of fluoroquinolone antibiotics” (HYDERABAD EYE RESEARCH FOUNDATION, priority 2018, dated 2024):
Marks after values point to notes of the source that are not given here.

Assays:
excised human cornea = test system: excised human cornea
Protocol: HPLC analysis was performed using Shimadzu Prominence UFLC, LC-20 system (Shimadzu, Japan) with a C18 column (Shimpack GIST column, 5 μm, 4.6×250 mm). The mobile phase used for besifloxacin analysis comprised of a mixture of 0.5% triethylamine solution (pH adjusted to 3.0 with 10% ortho-phosphoric acid) and acetonitrile (ACN) (74:26, v/v) (Costa et al, 2014). […] The injection volume was 50 μl for all the standards and test solutions. The flow rate and column temperature were maintained at 1.0 ml/min and 25° C., respectively. […] The amount of drug release was determined using respective standard calibration curves.
Excised human cornea was washed with PBS and mounted between donor and receptor compartments with epithelial side facing donor chamber. Receptor medium contained PBS maintained at 37±1° C. temperature using heated water circulator unit. The donor compartment was charged with 0.4% of drug containing polymeric hydrogel, standard drug solution or marketed formulation. Samples (300 μl) were withdrawn from the receptor chamber at predetermined time intervals including 0.5, 1, 2, 4, 6, 12 and 24 h. Samples were analyzed by HPLC method described above. […] Corneal permeation parameters were calculated from cumulative amount of drug permeated vs. time profile. Flux (J) was calculated from the slope of the linear portion of cumulative amount of permeated vs. time profile. Lag time (ttag) was calculated by extrapolating the linear portion of the curve to time axis. Permeability coefficient (Kp) was calculated using Equation 1.

[1] = In vitro drug release study, Franz diffusion cell with dialysis membrane; assay type: physicochemical; conditions: PBS pH 7.4, 33±1° C., 2 mg drug in donor
Protocol: In vitro release of drugs was performed using Franz diffusion cell apparatus (Permegear Inc., USA). […] The donor compartment was loaded with 2 mg of drug containing polymeric hydrogel or standard drug solution or marketed formulation. […] Samples were analyzed using HPLC method described above.

[2] = test system: Staphylococcus aureus (ATCC 25923) infected human cornea; assay: Antibacterial activity in ex vivo corneal infection model; assay type: cell-based; conditions: infected cornea incubated 30 min with 0.4% formulation, then 24 h; 10^−7 dilution; n=3
Protocol: Human corneas were incubated in antibiotic free DMEM media overnight at 37° C. […] After 24 h incubation at 37° C., the infected corneas were washed again with PBS and used for further studies. The infection-free corneas were used as controls (Pinnock, et. al, 2017). Infected cornea was washed, and a metal ring was placed on the corneoscleral button, creating a watertight seal. Drug formulations (0.4%) were added to the center of the ring and incubated for 0.5 and 1.5 h at 37° C. Later, the corneas were washed thoroughly with PBS to remove the excess formulation and incubated for 24 h at 37° C. The cornea was then homogenized, and the resulting suspension was serially diluted. A 10 μl sample was spotted on agar plates at 10^−5, 10^−6, 10^−7, 10^−8 dilutions for colony enumeration. The colonies were counted visually and expressed in colony forming units (CFU) using Equation 2. The antibacterial activity of drugs loaded in hydrogel formulations was evaluated against Staphylococcus aureus (ATCC 25923) infected human cornea (n=3).

## N[C@@H]1CCCCN(c2c(F)cc3c(=O)c(C(=O)O)cn(C4CC4)c3c2Cl)C1 [Besifloxacin Std., besifloxacin]
Excised human cornea
  Permeability coefficient: 15.57 ×10^−3, cm^2/h
Excised human cornea; human, 0.4 %
  Diffusion coefficient: 21.34 ×10^−3
  Flux: 36.80 ± 13.99 μg/cm^2/h
  Lag time: 1.22 ± 0.39 h
Excised human cornea; human, 0.5 h, 0.4 %
  Corneal tissue concentration: 398±50 μg/gram of tissue
Excised human cornea; human, 24 h, 0.4 %
  Cumulative amount permeated: 1267.42 ± 37.56 μg/cm^2
  Cumulative amount permeated across cornea: 1267 ± 38 µg
[1]
  Time to 100% release / complete diffusion across the membrane: ≤ 10 h
[2]
  CFU/ml: 2.5 ± 0.82 CFU/ml (×10^9)

## C[C@H]1COc2c(N3CCN(C)CC3)c(F)cc3c(=O)c(C(=O)O)cn1c23 [Levofloxacin Std., levofloxacin]
[2]
  CFU/ml: 8.3 ± 5.10 CFU/ml (×10^9)
